Data: patent US5443986A, “Enzymatic analysis using substrates that yield fluorescent precipitates” (Molecular Probes, Inc., priority 1993, dated 1995)

Tests used:
[1] = Critical concentration (Mc) for precipitation of the enzymatic product; assay type: physicochemical; details: product of hydrolysis by excess alkaline phosphatase, 0.1M TRIS pH 10.3
Description: 2D) Critical concentration: Various concentrations of 2-(4'-methoxy-2'-phosphoryloxyphenyl)quinazolinone (3e) were reacted with 50 μL of excess alkaline phosphatase in 200 μL solution of 0.1M TRIS≥pH 10.3 containing 50 mM NaCl, 10 mM MgCl2 and 0.1 mM ZnCl2. The resulting precipitate and fluorescence were measured in a CytoFluor fluorescence plate reader (Millipore) with excitation at 360 nm, emission at 460 nm using sensitivity setting 3.
3). Determination of the critical concentration and pH dependence for the precipitation. The critical concentration (Mc, in units of mmoles) and the pH dependence (pKa) for precipitation are both important parameters for judging the precipitation properties of the enzymatic products obtained from the subject substrates. Below the critical concentration the product will not be detected as a fluorescent precipitate. Obviously these two parameters contribute to the precipitation in a correlated way. As a simple approach, one may define the critical concentration as the concentration necessary for the precipitation at a high pH where all of the phenol group is ionized. Similarly, acidification by lowering the pH results in precipitation at a concentration below the critical concentration that is obtained at high pH to an extent that is related to the pKa of the phenolic group. It is a characteristic of the preferred substrates that only the product precipitate is fluorescent. In this case the precipitate is quantitated by its fluorescence which results in a correlation of the fluorescence with the degree of precipitation.
To obtain the critical concentration for one product the phosphatase substrate (1e) (200 μL) in a 96-well plate is added to 0.1M TRIS, pH 10.3, containing 50 mM NaCl, 10 mM MgCl2 and 0.1 mM ZnCl2 to yield a final concentration of 0.1 to 10 mM. 50 μL of a 1 mg/mL solution of alkaline phosphatase is then added. The fluorescence development is complete after 5 minutes as measured in using a CytoFluor™ 2300 fluorescence plate reader (Millipore, Bedford, Mass.). A concentration showing appreciable fluorescence is determined as the critical concentration.

[2] = molecular target: alkaline phosphatase (Bos taurus, UniProt P19111); assay: Detection of enzyme on non-denaturing gels after electrophoresis; assay type: biochemical
Sequence of alkaline phosphatase (P19111 20-506 limits assumed): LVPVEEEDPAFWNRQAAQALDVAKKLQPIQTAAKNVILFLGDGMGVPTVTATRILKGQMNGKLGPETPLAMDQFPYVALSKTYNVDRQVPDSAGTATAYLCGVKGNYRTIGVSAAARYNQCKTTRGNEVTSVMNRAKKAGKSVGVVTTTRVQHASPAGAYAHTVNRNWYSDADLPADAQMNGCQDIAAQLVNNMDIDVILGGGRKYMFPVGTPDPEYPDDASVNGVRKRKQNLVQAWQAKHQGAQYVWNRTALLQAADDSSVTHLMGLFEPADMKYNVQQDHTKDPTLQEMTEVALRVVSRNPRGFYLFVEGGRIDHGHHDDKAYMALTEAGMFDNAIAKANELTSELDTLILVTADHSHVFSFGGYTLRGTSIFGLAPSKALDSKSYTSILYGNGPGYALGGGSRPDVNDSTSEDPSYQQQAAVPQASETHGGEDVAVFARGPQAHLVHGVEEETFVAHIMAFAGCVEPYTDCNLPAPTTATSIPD
Description: 1 ). Detecting enzymes on native gels using precipitating substrates. Gel electrophoresis is a common method for identifying proteins in fluids and tissue homogenates. In native gel electrophoresis, the proteins retain their activity during the process of separation and thus can hypothetically be identified by activity assays. By incubating the native gel with various precipitating substrates specific for the analyte enzyme, one can identify whether the enzyme is present in the loaded sample. These methods are used for investigating the expression of both endogenous enzymes and enzyme-fusion proteins and for the detection of the enzyme in samples suspected of containing the enzyme. A protocol commonly used in these experiments is as follows:
1. The enzyme-containing sample is mixed with the sample buffer (0.075M TRIS-HCl in 50% glycerol, pH 6.8) to a concentration that is appropriate for loading the enzyme. The sample is loaded onto a 4-20% gradient acrylamide gel. The gel is run at 30 mA for approximately 30 minutes.
2. The gel is incubated in a buffer that is optimal for the enzyme being detected and that contains 1 mM of the substrate. For alkaline phosphatase the buffer used is 100 mM MOPS, 50 mM NaCl, 1 mM MgCl2, 0.1 mM ZnCl2, pH 7.5. The appearance of fluorescent bands is monitored using a hand-held ultraviolet lamp.
2). Comparing the sensitivity of enzyme detection using precipitating substrates versus standard Coomassie Blue detection. Decreasing amounts of alkaline phosphatase are loaded into the lanes of two gels. The amount of alkaline phosphatase loaded into each lane varies from […]. After electrophoresis, one gel is developed for visualization using standard Coomassie Blue-staining procedures; the other by incubation with 1 mM 8e as described above. The minimum detectable quantity of alkaline phosphatase using standard Coomassie Blue-staining methods is 1 μg. After incubation with 8e for 30 minutes, 1 ng of alkaline phosphatase is clearly visible using a handheld UV-lamp. After approximately 20 hours incubation, 0.25 ng of alkaline phosphatase can be visibly detected without any signal enhancement. These experiments indicate that incubation with the precipitating substrate provides a method for enzyme detection that is 4000 times more sensitive than standard Coomassie Blue-staining methods. […] Multiple proteins or extracts can be run in a single lane with only the enzyme specific for the synthetic substrate being detected by the staining.

Structure (SMILES): O=c1[nH]c(-c2cc(Cl)ccc2OP(=O)(O)O)nc2ccc(Cl)cc12 [8e, Ammonium 2-(5'-chloro-2'-phosphoryloxyphenyl)-6-chloro-4-(3H)-quinazolinone]
- Mc (critical concentration for precipitation) [1]: 0.1 mM
- quantity of alkaline phosphatase clearly visible on the gel ([2]; 1 mM substrate, 30 minutes incubation, handheld UV-lamp): 1 ng
- quantity of alkaline phosphatase visibly detected on the gel ([2]; 1 mM substrate, approximately 20 hours incubation, no signal enhancement): 0.25 ng
- sensitivity relative to standard Coomassie Blue-staining methods ([2]; enzyme detection on gel): 4000 times
- staining of negative control lanes ([2]; lanes loaded with 2-μg bovine serum albumin or 2-μg β-galactosidase): does not stain lanes
